“Also recorded” adds a separate entry of the source. Ends that are not written are not given here.

Test [1] concerns monocytes. The experiment in a line: Monocyte activation, TNFα and IL-1β ELISA. It counts as cell-based, human. As to conditions: for TNFα and IL-1β production from monocytes: protein coated on plates, ELISA; for TNFα induction from monocytes (7 NCL peptides): peptides 50 or 200 μg/ml. As to the method:
Buffy coat fractions were obtained from healthy blood donors at the Singapore Health Sciences Authority, with Institutional ethics approval, and PBMC were isolated using Ficoll-Paque (GE Healthcare). To isolate monocytes, PBMC were re-suspended to 1×10^7 cells/ml in the RPMI medium contained 5% (v/v) BCS and incubated for 1 hr in T75 flasks (20 ml/flask). Monocytes that adhered were harvested. To culture macrophages and DC [Cao, W., et al., Blood 107: 2777-2785, (2006), incorporated herein by reference], monocytes were resuspended to 1×10^6 cells/ml and cultured in 6-well plates (2 ml/well). Macrophages were cultured by adding M-CSF to 20 ng/ml and DC were cultured with 20 ng/ml GM-CSF and 40 ng/ml IL-4. M-CSF, GM-CSF and IL-4 were obtained from R&D Systems (Mineapolis, Minn.). Cells were cultured for 6 days with half of the media being replenished every two days.
[…] Where TLR ligands were used to stimulate these cells, they were added to the media: LPS (500 ng/ml for DC and macrophages and 10 ng/ml for PMBC and monocytes, InvivoGen), flagellin (1 μg/ml, InvivoGen), lipoteichic acid (LTA, 10 μg/ml). Cell activation was determined by measuring TNFα and IL-1β in the culture media using ELISA kits (Invitrogen).
In general terms: An ELISA detects its analyte on a solid surface through an enzyme-linked reagent.

The target in test [2] is T1, TLR2 (Homo sapiens, UniProt O60603). The experiment in a line: TLR2 binding assay (ELISA plate). Details: purchased R&D Systems. As to conditions: for TLR2 binding to coated NCL-HA mutants (summary experiment): protein coated 10 μg/ml, TLR2 2 μg/ml; for peptide binding to coated TLR2: biotin peptides at increasing concentrations.
The target of test [3] is T2, MyD88 (Homo sapiens, UniProt Q99836).
T2 construct: endogenous in cells; host or cells: PBMC / monocytes from blood donors
The experiment in a line: MyD88 inhibitor pre-treatment before stimulation, cytokine ELISA. It counts as cell-based. As to conditions: monocytes, st-2825 30 μM, 1 hr pre-incubation. As to the method: In some experiments, cells were pre-treated with the MyD88 inhibitor st-2825 (MedChemExpress) or the Caspase-1 inhibitor Ac-YVAD (InvivoGen) for 1 hr before stimulation with TLR ligands or the purified nuclear proteins. In some other experiments, cells were pre-incubated for 1 hr with anti-TLR2, TLR4 and TLR5 antibodies (InvivoGen) before stimulation. The optimal st-2825 and Ac-YVAD concentrations were determined based on both their effects on cell viability and LPS-induced cytokine production. Cell viability was determined using the CELLTITER 96® AQueous One Solution Cell Proliferation (MTS) Assay (Promega).
We then examined whether NCL still induces cytokines when MyD88 is inhibited [Kawai, T. and Akira, S., Semin Immunol 19: 24-32 (2007)]. A MyD88 inhibitor st-2825 was used in this experiment (FIG. 3A). Its optimal concentration was, after titration of its cytotoxicity and its inhibition of LPS-induced cytokine production, determined to be 30 μM (FIG. 5). […] The inhibition of TNFα production by Ac-YVAD could be explained by its blocking autocrine monocytes activation through the IL-1β these cells produce (FIG. 4).

In test [4] the test system is PBMC. The experiment in a line: PBMC activation, TNFα and IL-1β ELISA. It counts as cell-based, human. Details: PBMC activation (TNFα) by FBRL peptides: dose or concentration left out as unconfirmed. As to conditions: peptides added to 50 or 160, 24 hr.
The subject of test [5] is PBMC. As to the kind of experiment: Peptide binding to and penetration of PBMC, flow cytometry. It is filed as cell-based, human. To be noted: 1 hr at 4° C., fixed/permeabilized, streptavidin-AF488. As to the method:
PBMC re-suspended in 100 μl macrophage serum free media (3×10^6/ml) were incubated with different peptides (200 μg/ml). PBMC (100 μl) were incubated with the peptides for 1 hr at 37° C. or 4° C. Cells were washed twice in 2% FBS/PBS and incubated with streptavidin-AF488 and Zombie (NIR) Fixable viability stain-APC-Cy7 for 30 min at 4° C. Cells were then fixed with 1% PFA for 30 min at room temperature and analysed using the Fortessa analyser (BD). In some experiments, PBMC were, after incubation with peptides, incubated with Zombie (NIR) Fixable viability stain (APC-Cy7) for 30 min at 4° C. Cells were then fixed and permeabilized with BD CYTOFIX/CYTOPERM™ Kit for 20 min at 4° C., and then incubated with streptavidin-AF488 for 30 min at 4° C. In some experiments, PBMC were, after incubation with the peptides, stained with fluorescent mouse antibodies specific for monocytes (CD14/BV711), T cells (CD3/PerCP-Cy5-5) and B cells (CD19/Pacific blue). Cells were then stained with Zombie (NIR) Fixable viability stain-APC-Cy7 and streptavin-AF488, with or without membrane permeabilization. In these experiments, monocytes, T cells and B cells were separately gated to detect surface peptide binding and intracellular peptide penetration.

For test [6], the target named is T1, TLR2. The experiment in a line: TLR and NF-κB-luciferase assay in 293T cells, TLR2/TLR1/TLR6/TLR10. It counts as cell-based. Further details: expressed in transfected cells; host or cells: human embryonic kidney 293T cells. To be noted: peptides 200 μg/ml, 24 hr. On the procedure:
TLR-mediated NF-κB activation was determined using a Dual Luciferase Reporter Assay (Promega), in which two luciferase reporter plasmids were used. […] Transfection was performed using the TurboFect Transfection Reagent (Thermo Fisher Scientific). After 24 hr, cells were harvested and cultured for 24 hr in 96-well plates coated with the purified proteins or, as controls, cultured in blank plates but stimulated with TLR ligands. Cells were lysed to measure both firefly and Renilla luciferase activities and, in each sample, the firefly activity was normalized to the Renilla luciferase activity and expressed as relative NF-κB activation.
TLRs and, where it required, co-receptors were co-transfected in a total of 4 combinations, i.e. TLR2/1/6/10, TLR4/CD14/MD2, TLR5, or TLR3/7/8/9. Two luciferase expression vectors were used: one expresses the firefly luciferase under 5 repeats of the NF-κB gene promoter and the other expresses the Renilla luciferase under the constitutively active CMV promoter (FIG. 3A).

Test [7] deals with T3, Recombinant human TLR2-10×His (R&D Systems) (human, UniProt O60603 21-590).
T3 construct: Bought protein; also called His-tagged TLR2
As to the kind of experiment: ELISA: biotin peptide on coated TLR2.

For test [8], the system named is autologous CD4 and CD8 T cells. As to the kind of experiment: Antigen-loaded DC co-culture with autologous lymphocytes, proliferation. As to conditions: DC:T 1:5, 2 weeks co-culture, CellTrace Violet. It counts as cell-based, human. As to the method:
PBMC were isolated from healthy blood donors from which monocytes were isolated to culture DC and the remaining cells (mostly lymphocytes) were stored frozen as a source of autologous lymphocytes. DC were then incubated for 24 hr with P2+G, IPA1E2 or the IPA1E2-P2+G fusion polypeptide (SEQ ID NO: 58) in round bottom 96-well plates (5×10^4 cells/well) without adding additional adjuvants. The frozen lymphocytes were revived and labelled with CellTrace Violet (2.5 μM) for 10 min at 37° C. and then added to the DC wells at 2.5×10^5 cells/well (DC:T ratio=1:5). After 2 weeks of co-culture, the proliferation of CD4+ and CD8+ T cell and CD19+ B cell was analyzed by flow cytometry.

T3 sequence (O60603 other isoform, or with tags, fused parts or gaps limits assumed): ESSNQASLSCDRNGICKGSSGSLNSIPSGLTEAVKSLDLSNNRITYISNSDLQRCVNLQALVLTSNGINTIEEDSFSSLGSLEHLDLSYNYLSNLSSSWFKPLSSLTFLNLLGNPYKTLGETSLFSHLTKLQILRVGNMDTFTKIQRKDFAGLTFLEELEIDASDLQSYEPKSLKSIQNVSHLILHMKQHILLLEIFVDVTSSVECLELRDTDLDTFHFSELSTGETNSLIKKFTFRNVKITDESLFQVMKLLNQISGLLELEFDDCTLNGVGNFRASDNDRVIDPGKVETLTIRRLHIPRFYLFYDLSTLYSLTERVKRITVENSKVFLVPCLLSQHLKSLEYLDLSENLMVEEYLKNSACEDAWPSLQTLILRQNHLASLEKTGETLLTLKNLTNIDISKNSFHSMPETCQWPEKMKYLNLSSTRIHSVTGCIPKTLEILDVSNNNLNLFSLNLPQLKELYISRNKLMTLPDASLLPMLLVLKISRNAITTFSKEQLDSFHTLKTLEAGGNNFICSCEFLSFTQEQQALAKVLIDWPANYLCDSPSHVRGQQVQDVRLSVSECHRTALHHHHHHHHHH
T2 sequence (Q99836 whole entry): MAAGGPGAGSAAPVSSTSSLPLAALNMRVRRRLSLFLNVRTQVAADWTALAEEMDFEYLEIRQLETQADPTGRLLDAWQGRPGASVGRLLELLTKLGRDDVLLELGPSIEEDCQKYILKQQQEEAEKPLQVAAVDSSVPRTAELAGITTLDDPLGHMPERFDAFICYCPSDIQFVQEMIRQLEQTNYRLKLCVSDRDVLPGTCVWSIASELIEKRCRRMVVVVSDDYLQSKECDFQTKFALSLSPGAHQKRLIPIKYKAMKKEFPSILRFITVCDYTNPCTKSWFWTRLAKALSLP

“NCL(670)-HA: NCL-HA C-terminal deletion mutant of 670 residues with a residual GAR/RGG region”: the “TNFα and IL-1β production from monocytes” value in test [1] (24 hr) was “no longer stimulates monocytes; also recorded: apparently insufficient”. The “TLR2 binding to coated NCL-HA mutants (summary experiment)” value in test [2] is listed as “weak binding”.

“NCL(698)-HA: NCL-HA mutant in which 12 amino acids were deleted from the C-terminal end”: in test [1] (24 hr), the “TNFα and IL-1β production from monocytes” value was “continued to stimulate monocytes”. In addition, the “TLR2 binding to coated NCL-HA mutants (summary experiment)” value in test [2] is listed as “bound”.

For the molecule `NC(=O)[C@H]1CCS[C@@H]2C[C@]3(CCCN3C(=O)Cc3ccc(NC(=O)COc4ccc(Cl)cc4Cl)cc3)C(=O)N12` [st-2825], in test [3], the “inhibition of HMGB1 and LPS induction of TNFα and IL-1β” value is reported as “also inhibited”; the “inhibition of NCL induction of TNFα and IL-1β” value is recorded as “partially but significantly inhibited”.

For the molecule RGGGFGGRGGFGDRGGRGGRGG (FBRL-P1), the “PBMC activation (TNFα) by FBRL peptides” value in test [4] is “activated PBMC”.

Regarding “GGFGGRGGGRGGFGGRGGGRGGRGGFGGRGRG (NCL-P1)”, the “intracellular pool / cell penetration (CPP activity) in PBMC” value (“intracellular pool / cell penetration” for short) in test [5] was “accumulate intracellular pools”. Besides, the “cytokine induction, soluble versus coated (immobilized) form” value in test [1] (monocytes, 24 hr) is listed as “induced more cytokines than immobilized peptides”. Further, the “TNFα induction from monocytes (7 NCL peptides)” value in test [1] (24 hr) was “induced TNFα”. Also, in test [1] (soluble peptide 10 and 20 μg/ml), the “TNFα induction from monocytes at lower concentrations” value is listed as “induced little TNFα”. Further, in test [1] (soluble peptide 80 and 160 μg/ml), the “TNFα induction from monocytes at higher concentrations” value is “strongly induced TNFα production”. Besides, the “peptide binding to coated TLR2” value in test [2] (TLR2 coated 2 μg/ml) is “dose-dependent and saturable binding to TLR2”.

In the case of RGGFGGRGGGRGGRGGFGGRG (NCL-P6), the “intracellular pool / cell penetration” value in test [5] is on record as “all lacked cell penetration; also recorded: diminished CPP activities”. Besides, the “TNFα induction from monocytes (7 NCL peptides)” value in test [1] (24 hr) is on record as “induced TNFα; also recorded: minor adjuvant activity”. Moreover, in test [2] (TLR2 coated 2 μg/ml), the “concentration at which saturated TLR2 binding was reached” value amounted to 80 µg/mL and the “peptide binding to coated TLR2” value is given as “largely replicated NCL-P2 in TLR2 binding”.

For the molecule “NCL-P3: control peptide covering the C-terminal 12 residues of NCL outside the GAR/RGG domain (DHKPQGKKTKFE; NCL-P3)”, the “TLR2-mediated NF-κB activation by peptides” value in test [6] is recorded as “not observed”. In addition, the “intracellular pool / cell penetration” value in test [5] is on record as “no intracellular pool; also recorded: not a 12-AA non-GAR/RGG peptide”. The “TNFα induction from monocytes, all concentrations” value in test [1] (soluble peptide 10 to 160 μg/ml, 24 hr) is given as “no TNFα induction”. Besides, the “peptide binding to coated TLR2” value in test [2] (TLR2 coated 2 μg/ml) was “no detectable binding; also recorded: lacked TLR2 binding”.

For RGGFGGGRGRGGGFRGRGRGG (FBRL-P2), the “PBMC activation (TNFα) by FBRL peptides” value in test [4] is “activated PBMC”.

B1: NCL-P3 control peptide (C-terminal 12 residues of NCL), N-terminal biotin (peptide)
peptide: DHKPQGKKTKFE
modifications: not fully specified (N-terminus)
notes: Synthetic peptide
As to B1, the binding result in test [7] is “no binding (tested: 0.64 to 1,000 ng/ml)”.

B2: NCL-P1 peptide (32 residues), N-terminal biotin (peptide)
peptide: GGFGGRGGGRGGFGGRGGGRGGRGGFGGRGRG
modifications: not fully specified (N-terminus)
notes: Synthetic peptide
Turning to B2, the binding result in test [7] is “binds”.

B3: NCL-P4 peptide, N-terminal biotin (peptide)
peptide: RGGFGGRGGG
modifications: not fully specified (N-terminus)
notes: Synthetic peptide; also called NCL-4
For B3, the binding result in test [7] is on record as “no binding (tested: 200 µg/ml)”.

B4: NCL-P5 peptide, N-terminal biotin (peptide)
peptide: RGGRGGFGGRG
modifications: not fully specified (N-terminus)
notes: Synthetic peptide
Regarding B4, in test [7], the binding result is “binds”.

B5: IPA1E2-P2+G: P2+G synthesized in fusion with the 30-AA peptide antigen IPA1E2 (peptide)
chain: GQGQLVKRPKIMRFISHLWLALESANSEKRGGFGGRGGGRGGRGGFGGRGGRGGFGGRGGFRGGRGG
modifications: IPA1E2-P2+G
notes: P2+G synthesized in fusion with the 30-AA peptide antigen IPA1E2
B5: the “T cell proliferation / activation induced by peptide-loaded DC” value in test [8] is on record as “significantly increased T cell proliferation”.

The values are drawn from patent US20230257429A1, “PEPTIDE ADJUVANT FOR ITS THERAPEUTIC APPLICATIONS IN VIRAL AND TUMOUR VACCINE DEVELOPMENT AND CANCER IMMUNOTHERAPY AND AUTOIMMUNE DISEASE DIAGNOSIS AND TREATMENTS” (National University of Singapore, priority 2020, published 2023).
